Results reported in PMC6934825 (Scientific Reports, 2019).
“Also recorded” adds a separate entry of the source.

How the values were obtained:
[1] = human, up to 120 minutes
[2] = in vivo study in male rats; details: cited from earlier work
[3] = plasma in vitro; cited from earlier work
[4] = clinical trials, acute respiratory distress syndrome; cited from earlier work

Question: Which cleaved bond [1] does the source give for “pGlu Arg Pro Arg Leu Ser His Lys Gly Pro Met Pro Phe” here?
Answer: Its cleaved bond is “Pro10-Met11, major, 120 minutes; also recorded: Ser6-His7, major, 120 minutes; also recorded: Leu5-Ser6, 120 minutes”.

Question: And the fragment found [2]?
Answer: The fragment found was “[Pyr^1]apelin-13(1–12); also recorded: [Pyr^1]apelin-13(1–10); also recorded: [Pyr^1]apelin-13(1–6)”.

Question: With `CSCC[C@H](NC(=O)[C@@H]1CCCN1C(=O)CNC(=O)[C@H](CCCCN)NC(=O)[C@H](Cc1cnc[nH]1)NC(=O)[C@H](CO)NC(=O)[C@H](CC(C)C)NC(=O)[C@H](CCCNC(=N)N)NC(=O)[C@@H]1CCCN1C(=O)[C@H](CCCNC(=N)N)NC(=O)[C@@H]1CCC(=O)N1)C(=O)N1CCC[C@H]1C(=O)N[C@@H](Cc1ccccc1)C(=O)O` [[Pyr^1]apelin-13] as the molecule, how does the “degradation in rat and mouse plasma compared to dog, monkey and human plasma” value [3] read?
Answer: Its value is “more rapid degradation”.

Question: Which tolerability [4] does the source give for “GSK2586881: recombinant human ACE2 for treatment of acute respiratory distress syndrome” here?
Answer: Its tolerability is “well-tolerated”.
